Patent publication US12303513B2, “Methods and compositions to treat cancer” (Children's Hospital Medical Center, priority 2016, dated 2025)
Entries after “also recorded” stand apart in the source; their conditions may differ.

Key:
[1] = test system: MSTO-211H mesothelioma cells; experiment: Growth inhibition by iMDK combined with ABT263 (FIG. 5); assay type: cell-based, human; settings: 48 hours, ABT263 plus iMDK versus each drug alone
Method: FIG. 5. ABT263 enhanced iMDK-mediated suppression of cell proliferation in MSTO-211H mesothelioma cells. […] Cell lines: The human malignant pulmonary mesothelioma cells MSTO-211H, H2452, H2052, H28 MESO-1 and MESO-4 were grown in RPMI 1640 supplemented with 10% heat-inactivated fetal bovine serum. The human pulmonary adenocarcinoma cells: H441 and the human embryonic kidney cells: HEK293 were grown in high glucose Dulbecco's modified Eagle supplemented with 10% heat-inactivated fetal bovine serum. All cell lines were cultured in 5% CO2 at 37° C.

[2] = test system: MSTO211H mesothelioma cells; experiment: Cell growth, cell count with Countess II (FIGS. 14, 15); assay type: cell-based, human; settings: 48 hours, dose-dependent, vs DMSO control
Method: FIG. 14. iMDK (#3) and its derivatives (A6, D9 and E6) inhibits growth of MSTO211H mesothelioma cells. MSTO211H mesothelioma cells were treated with iMDK (#3) or iMDK derivatives (A6, D9 or E6) at indicated different final concentrations.
FIG. 15. iMDK (#3) and its derivatives (F5, F6 and F7) inhibits growth of MSTO211H mesothelioma cells. MSTO211H mesothelioma cells were treated with iMDK (#3) or iMDK derivatives (F5, F6 or F7) at indicated different final concentrations.
(§1) Cell lines: The human malignant pulmonary mesothelioma cells MSTO-211H, H2452, H2052, H28 MESO-1 and MESO-4 were grown in RPMI 1640 supplemented with 10% heat-inactivated fetal bovine serum. The human pulmonary adenocarcinoma cells: H441 and the human embryonic kidney cells: HEK293 were grown in high glucose Dulbecco's modified Eagle supplemented with 10% heat-inactivated fetal bovine serum. All cell lines were cultured in 5% CO2 at 37° C.

midkine protein = experiment: Inhibition of midkine protein expression (Table, FIGS. 7-12); assay type: cell-based; settings: for Activity on protein expression: 1 uM of compound
MESO4 mesothelioma cells = experiment: Cell growth, cell count with Countess II (FIGS. 16, 17); assay type: cell-based, human; settings: MESO4, 48 hours, dose-dependent, vs DMSO control
Method: FIG. 16. iMDK (#3) and its derivatives (A6, D9 and E6) inhibits growth of MESO4 mesothelioma cells. MESO4 mesothelioma cells were treated with iMDK (#3) or iMDK derivatives (A6, D9 or E6) at indicated different final concentrations.
FIG. 17. iMDK (#3) and its derivatives (F5, F6 and F7) inhibits growth of […] mesothelioma cells. MESO4 mesothelioma cells were treated with iMDK (#3) or iMDK derivatives (F5, F6 or F7) at indicated different final concentrations.
as §1

293 cells = experiment: Cell viability, Wright-Giemsa staining (FIG. 18C), 293 cells; assay type: cell-based, human; settings: 10 μM, 3 days after treatment
H28 mesothelioma cells = experiment: Cell viability, trypan blue exclusion assay (FIG. 2), H28; assay type: cell-based, human; settings: H28, 48 hours of treatment
Method: as §1, with “FIG. 2. iMDK suppressed cell viability of MDK expressing malignant pulmonary mesothelioma cells. […] Cell viability was assessed by trypan blue exclusion assay. Statistical significance was defined as p<0.01 (*). Cell” for “Cell”

H2052 mesothelioma cells = experiment: Cell viability, trypan blue exclusion assay (FIG. 2), H2052; assay type: cell-based, human; settings: H2052, 48 hours of treatment
Method: as §1, with “FIG. 2. iMDK suppressed cell viability of MDK expressing malignant pulmonary mesothelioma cells. […] Cell viability was assessed by trypan blue exclusion assay. Statistical significance was defined as p<0.01 (*). Cell” for “Cell”

H441 cells = experiment: Cell viability / toxicity in H441 cells (FIGS. 18C, 19); assay type: cell-based, human; settings: 10 μM, 3 days after treatment (not shown)
normal cells = settings: previously reported; cited from earlier work
[3] = test system: non-small cell lung cancer expressing MDK; settings: previously reported; cited from earlier work
MSTO-211H cells [4] = experiment: Colony formation, crystal violet staining (FIG. 3); assay type: cell-based, human; settings: fourteen days after treatment
Method: as §1, with “Colony formation of MSTO-211H cells treated with iMDK. Fourteen days after the treatment, cells were fixed and stained with crystal violet. Representative images of experiments performed in triplicate are shown. Cell” for “Cell”

MSTO-211H cells [5] = experiment: Apoptosis by TUNEL staining (FIG. 4); assay type: cell-based, human; settings: 48 h treatment, dose dependent
Method: Cells were treated for 48 h at a indicated concentration of iMDK then TUNEL staining was performed to detect apoptosis using the DeadEnd colorimetric TUNEL system (Promega, Madison, WI) according to the manufacturer's protocol. Statistical significance was defined as p<0.01 (*). Cell lines: The human malignant pulmonary mesothelioma cells MSTO-211H, H2452, H2052, H28 MESO-1 and MESO-4 were grown in RPMI 1640 supplemented with 10% heat-inactivated fetal bovine serum. The human pulmonary adenocarcinoma cells: H441 and the human embryonic kidney cells: HEK293 were grown in high glucose Dulbecco's modified Eagle supplemented with 10% heat-inactivated fetal bovine serum. All cell lines were cultured in 5% CO2 at 37° C.

endogenous midkine = experiment: Endogenous midkine expression in H441 cells by western blotting (FIG. 18A); assay type: cell-based, human; settings: H441 lung adenocarcinoma cells, 10 μM, 24 hours
Method: FIG. 18. […] A. H441 lung adenocarcinoma cells were treated with iMDK and related compounds at a final concentration of 10 μM. Twenty-four hours after treatment, cells were harvest and protein expression was assessed using western blotting assay. […] B. Shown is structures of compounds #2 (also known as F6). #3 (also known as iMDK), #5, #7, and #8. C. […] DMSO was used as control.
as §1

PI3 kinase/Akt pathway = settings: previously reported; cited from earlier work
[6] = test system: MSTO-211H mesothelioma cells; experiment: Cell viability, trypan blue exclusion assay (FIG. 2), MSTO-211H; assay type: cell-based, human; settings: 48 hours of treatment
Method: as §1, with “FIG. 2. iMDK suppressed cell viability of MDK expressing malignant pulmonary mesothelioma cells. […] Cell viability was assessed by trypan blue exclusion assay. Statistical significance was defined as p<0.01 (*). Cell” for “Cell”

H2452 mesothelioma cells = experiment: Cell viability, trypan blue exclusion assay (FIG. 2), H2452; assay type: cell-based, human; settings: H2452, 48 hours of treatment
Method: as §1, with “FIG. 2. iMDK suppressed cell viability of MDK expressing malignant pulmonary mesothelioma cells. […] Cell viability was assessed by trypan blue exclusion assay. Statistical significance was defined as p<0.01 (*). Cell” for “Cell”

[7] = test system: MDK expressing non-small cell lung cancer cells; settings: previously reported; cited from earlier work
[8] = test system: tumors derived from MSTO-211H cells; experiment: Malignant pleural mesothelioma xenograft mouse model (FIG. 6); assay type: in vivo; settings: i.p., compared to control (DMSO)
Text: Eight mice were used in each group. Tumor growth is expressed as mean tumor volume; bars represent SD. Statistical significance was defined as p<0.05 (#)

| SMILES | growth of cells (number of cells) [2] | Concentration to inhibit midkine protein expression (midkine protein) [µM] | Activity on protein expression (midkine protein) | growth of cells (number of cells) (MESO4 mesothelioma cells) | other results |
| --- | --- | --- | --- | --- | --- |
| CC1(C)CCC(c2ccc(Cl)cc2)=C(CN2CCN(c3ccc(C(=O)NS(=O)(=O)c4ccc(N[C@H](CCN5CCOCC5)CSc5ccccc5)c(S(=O)(=O)C(F)(F)F)c4)cc3)CC2)C1 [ABT-263] | – | – | – | – | growth inhibition in combination with iMDK [1]: more effective than each drug alone; growth inhibition in combination with iMDK ([1]; listed as ABT263): enhanced growth inhibition |
| Cc1ccc(Cc2cn3cc(-c4cc5ccccc5oc4=O)nc3s2)cc1 [Compound 8] | significantly inhibited the growth | 1 | inhibits protein expression | significantly inhibited the growth | – |
| COc1ccc(Cc2cn3cc(-c4cc5ccccc5oc4=O)nc3s2)cc1 [Compound 6] | significantly inhibited the growth | 1 | inhibits protein expression | significantly inhibited the growth | – |
| O=c1oc2ccccc2cc1-c1cn2cc(Cc3ccc(F)cc3)sc2n1 [iMDK, 3-[2-(4-fluorobenzyl)imidazo[2,1-b][1,3]thiazol-6-yl]-2H-chromen-2-one] | significantly inhibited the growth | 0.1 | – | significantly inhibited the growth | cell viability (293 cells): inhibited cell viability; growth inhibition (cell viability) (H28 mesothelioma cells): Dose-dependent growth inhibition; growth inhibition (cell viability) (H2052 mesothelioma cells): Dose-dependent growth inhibition; cell viability (H441 cells): inhibited cell viability; harm to normal cells (normal cells): without harming; suppression of non-small cell lung cancer expressing MDK [3]: suppresses; colony formation (MSTO-211H cells [4]): suppressed colony formation; apoptosis (TUNEL positive cells) (MSTO-211H cells [5]): induced apoptosis; also recorded: significantly increased; endogenous midkine expression (endogenous midkine): suppressed endogenous midkine expression; PI3 kinase/Akt pathway (PI3 kinase/Akt pathway): inhibits; growth inhibition (cell viability) [6]: Dose-dependent growth inhibition; growth inhibition (cell viability) (H2452 mesothelioma cells): Dose-dependent growth inhibition; apoptosis [7]: induces apoptosis; Volume of the tumors ([8]; iMDK 5 mg/kg): significantly reduced; Volume of the tumors ([8]; iMDK 9 mg/kg): significantly reduced |
| O=c1oc2ccccc2cc1-c1cn2cc(Cc3ccc(C(F)(F)F)cc3)sc2n1 [Compound 9] | significantly inhibited the growth | 1 | inhibits protein expression | significantly inhibited the growth | – |
| O=c1oc2ccccc2cc1-c1cn2cc(Cc3ccc(Cl)cc3)sc2n1 [Compound 1] | significantly inhibited the growth | 1 | inhibits protein expression | significantly inhibited the growth | cell viability (293 cells): inhibited cell viability; cell viability (H441 cells): inhibited cell viability; endogenous midkine expression (endogenous midkine): suppressed endogenous midkine expression |
| COc1ccc(-c2cn3cc(Cc4ccc(F)cc4)sc3n2)cc1 [Compound 10] | significantly inhibited the growth | 10 | inhibits protein expression | significantly inhibited the growth | – |
| O=c1oc2ccccc2cc1-c1cn2cc(Cc3ccccc3)sc2n1 [Compound 5] | significantly inhibited the growth | 10 | inhibits protein expression | significantly inhibited the growth | – |
| O=c1oc2ccccc2cc1-c1cn2cc(Cc3cccc(C(F)(F)F)c3)sc2n1 [Compound 7] | – | 0.1 | – | – | – |
